# Measured values taken from patent US20160090556A1, “PRODUCTS COMPRISING MALODOR REDUCTION MATERIALS” (The Procter & Gamble Company, priority 2014, published 2016).
# Like-named read-outs stand apart in the source and are kept apart here.
# Experiment: Liquid dish neat product liquid-air partition coefficient
# Assay type: physicochemical
# [1] = class code letter within Comment Code
SMILES,Log of liquid dish neat product liquid-air partition coefficient (Comment Code K/L) [1],"Comment Code: Log of liquid dish neat product liquid-air partition coefficient (code letters K, L)",Log of liquid dish neat product liquid-air partition coefficient (Comment Code K/L),further results
CCCCCCCC(=O)OCc1ccco1 [Material 336],K (Log of liquid dish neat product liquid-air partition coefficient greater than or equal to −7),,,
C=C(C)C1CC=C(C)C(O)C1 (stereo not drawn) [Material 170],K (Log of liquid dish neat product liquid-air partition coefficient greater than or equal to −7),,,
C=CC(C)(CCC=C(C)C)OC=O (stereo not drawn) [Material 150],,K (Log of liquid dish neat product liquid-air partition coefficient greater than or equal to −7),,
CC1=CCC(O)(C(C)C)CC1 (stereo not drawn) [Material 791],,,K (Log of liquid dish neat product liquid-air partition coefficient greater than or equal to −7),
C=C1[C@H]2CC[C@H](CO)[C@@]23CC[C@H](C3)C1(C)C [Material 183],K (Log of liquid dish neat product liquid-air partition coefficient greater than or equal to −7),K (Log of liquid dish neat product liquid-air partition coefficient greater than or equal to −7),,
CCCCCCCCCCCC(=O)OC(C)C [Material 197],K (Log of liquid dish neat product liquid-air partition coefficient greater than or equal to −7),,,
CC(C)C1OCCC2(CC3CCC2(C)C3(C)C)O1 (stereo not drawn) [Material 659],,K (Log of liquid dish neat product liquid-air partition coefficient greater than or equal to −7),K (Log of liquid dish neat product liquid-air partition coefficient greater than or equal to −7),
C=C(C)[C@@H]1CCC2=CCC[C@@H](C)[C@]2(C)C1 [Material 1105],,,K (Log of liquid dish neat product liquid-air partition coefficient greater than or equal to −7),
C=C(OC(C)=O)c1ccccc1 [Material 931],,K (Log of liquid dish neat product liquid-air partition coefficient greater than or equal to −7),,
CCCCCCCCCC(OCC)OCC [Material 473],K (Log of liquid dish neat product liquid-air partition coefficient greater than or equal to −7),,,
CCCCCCCCCCC=O [Material 1102],,,K (Log of liquid dish neat product liquid-air partition coefficient greater than or equal to −7),
CC=Cc1ccc(OC(C)=O)c(OC)c1 [Material 213],,K (Log of liquid dish neat product liquid-air partition coefficient greater than or equal to −7),,
CC(=O)OC12CCCC(C)(CCC3C1CC3(C)C)C2 (stereo not drawn) [Material 573],,K (Log of liquid dish neat product liquid-air partition coefficient greater than or equal to −7),K (Log of liquid dish neat product liquid-air partition coefficient greater than or equal to −7),
CC=C(C)C(=O)OCCC=CCC [Material 274],K (Log of liquid dish neat product liquid-air partition coefficient greater than or equal to −7),,,
COC1CC2CC1C1CC(C=O)CC21 (stereo not drawn) [Material 1027],,K (Log of liquid dish neat product liquid-air partition coefficient greater than or equal to −7),K (Log of liquid dish neat product liquid-air partition coefficient greater than or equal to −7),
CC(=O)OCCc1ccccc1 [Material 832],,K (Log of liquid dish neat product liquid-air partition coefficient greater than or equal to −7),,
OCCOc1ccccc1 [Material 834],,,K (Log of liquid dish neat product liquid-air partition coefficient greater than or equal to −7),
CCC(C)C(=O)N(C)c1ccccc1 (stereo not drawn) [Material 314],,K (Log of liquid dish neat product liquid-air partition coefficient greater than or equal to −7),,
COc1ccc(CC(C)=O)cc1 [Material 983],,K (Log of liquid dish neat product liquid-air partition coefficient greater than or equal to −7),,
C/C=C\c1ccc(O)c(OC)c1 [Material 528],,K (Log of liquid dish neat product liquid-air partition coefficient greater than or equal to −7),,
CC(C)C(=O)OCCc1ccccc1 [Material 958],,K (Log of liquid dish neat product liquid-air partition coefficient greater than or equal to −7),,
CCCC(=O)OCCc1ccccc1 [Material 831],,,K (Log of liquid dish neat product liquid-air partition coefficient greater than or equal to −7),
CC/C=C\CCOC(=O)c1ccccc1 [Material 541],K (Log of liquid dish neat product liquid-air partition coefficient greater than or equal to −7),,,

SMILES,Log of liquid dish neat product liquid-air partition coefficient (Comment Code K/L) [1],"Comment Code: Log of liquid dish neat product liquid-air partition coefficient (code letters K, L)",Log of liquid dish neat product liquid-air partition coefficient (Comment Code K/L),further results
CC(=O)OCC1CC=C(CCC=C(C)C)CC1 (stereo not drawn) [Material 74],K (Log of liquid dish neat product liquid-air partition coefficient greater than or equal to −7),,,
C=CCc1ccc(O)c(OC)c1 [Material 375],K (Log of liquid dish neat product liquid-air partition coefficient greater than or equal to −7),,,
COC(OC)C(C)c1ccccc1 (stereo not drawn) [Material 256],K (Log of liquid dish neat product liquid-air partition coefficient greater than or equal to −7),,,
CC=CC(=O)C1C(C)C=CCC1(C)C (stereo not drawn) [Material 466],K (Log of liquid dish neat product liquid-air partition coefficient greater than or equal to −7),,,
COc1ccc(C(C)=O)cc1 [Material 761],,K (Log of liquid dish neat product liquid-air partition coefficient greater than or equal to −7),,
CC1=CC(=O)CC(C)C12CCC(=C(C)C)C2 (stereo not drawn) [Material 610],,,K (Log of liquid dish neat product liquid-air partition coefficient greater than or equal to −7),
COc1ccccc1C=CC=O [Material 26],,K (Log of liquid dish neat product liquid-air partition coefficient greater than or equal to −7),,
CC(C)=C1CCC2=CC(=O)CC(C)C2(C)C1 (stereo not drawn) [Material 684],,K (Log of liquid dish neat product liquid-air partition coefficient greater than or equal to −7),K (Log of liquid dish neat product liquid-air partition coefficient greater than or equal to −7),
CC1(C)C2CCC3(C2)C1C1(CCC3(C)C)OCCO1 (stereo not drawn) [Material 1145],,K (Log of liquid dish neat product liquid-air partition coefficient greater than or equal to −7),,"Comment Code: Log of liquid dish neat product liquid-air partition coefficient (codes K/L of the Comment Code, Table 1): K (Log of liquid dish neat product liquid-air partition coefficient greater than or equal to −7)"
C=CC(C)=CCC=C(C)CCC=C(C)C=O [Material 691],,,K (Log of liquid dish neat product liquid-air partition coefficient greater than or equal to −7),
CCC=C1OC(=O)c2ccccc21 [Material 805],,,K (Log of liquid dish neat product liquid-air partition coefficient greater than or equal to −7),
CC/C=C\CCOC(=O)C/C=C\CC [Material 534],K (Log of liquid dish neat product liquid-air partition coefficient greater than or equal to −7),,,
CC(=O)OC(C)CCC=C(C)CCC=C(C)C (racemic) [Material 881],,,K (Log of liquid dish neat product liquid-air partition coefficient greater than or equal to −7),
CCCCCCCCCCCCCO [Material 1090],,,K (Log of liquid dish neat product liquid-air partition coefficient greater than or equal to −7),
CCC(=O)OC1CC2CC1C1CC=CC21 (stereo not drawn) [Material 919],,K (Log of liquid dish neat product liquid-air partition coefficient greater than or equal to −7),K (Log of liquid dish neat product liquid-air partition coefficient greater than or equal to −7),
c1ccc(CCc2ccccc2)cc1 [Material 457],K (Log of liquid dish neat product liquid-air partition coefficient greater than or equal to −7),,,
CC(=O)OC(C)(C)C1CC=C(C)CC1 (stereo not drawn) [Material 687],,K (Log of liquid dish neat product liquid-air partition coefficient greater than or equal to −7),,
CCCCCC(=O)Oc1ccc(C)cc1 [Material 939],,,K (Log of liquid dish neat product liquid-air partition coefficient greater than or equal to −7),
CCC(C)C(=O)OCCc1ccccc1 (stereo not drawn) [Material 954],,,K (Log of liquid dish neat product liquid-air partition coefficient greater than or equal to −7),
CC1=CC(C)C2C(CCC(C)(C)C2O)C1 (stereo not drawn) [Material 39],K (Log of liquid dish neat product liquid-air partition coefficient greater than or equal to −7),K (Log of liquid dish neat product liquid-air partition coefficient greater than or equal to −7),,
O=C1CCCCCCCCCCCCCCO1 [Material 370],K (Log of liquid dish neat product liquid-air partition coefficient greater than or equal to −7),,,
C=CCOC(=O)CCC1CCCCC1 [Material 746],,,K (Log of liquid dish neat product liquid-air partition coefficient greater than or equal to −7),
CC(=O)OCC=Cc1ccccc1 [Material 553],K (Log of liquid dish neat product liquid-air partition coefficient greater than or equal to −7),,,
